Activity calls are given as the source filed them. No cut-off for these calls is given here.
Columns and labels:
Rattus norvegicus [1] = assay: Antihypertensive activity in spontaneously hypertensive rat model assessed as reduction in blood pressure at 1 mg/kg, po after 3 hrs; type: functional; parameters: scale not given: the % may be the effect or the level left
Rattus norvegicus [2] = assay: Antihypertensive activity in spontaneously hypertensive rat model assessed as reduction in blood pressure at 3 mg/kg, po after 24 hrs; type: functional; parameters: scale not given: the % may be the effect or the level left
Rattus norvegicus [3] = assay: Antihypertensive activity in spontaneously hypertensive rat model assessed as reduction in blood pressure at 1 mg/kg, po after 24 hrs; type: functional; parameters: scale not given: the % may be the effect or the level left
Rattus norvegicus [4] = assay: Antihypertensive activity in spontaneously hypertensive rat model assessed as reduction in blood pressure at 3 mg/kg, po after 3 hrs; type: functional; parameters: scale not given: the % may be the effect or the level left
Rattus norvegicus [5] = assay: Antianxiety activity in Long-Evans rat assessed as reduction in motor activity at 10 mg/kg, po after 2 hrs relative to vehicle-treated control; type: functional; parameters: scale not given: the % may be the effect or the level left
Mus musculus [6] = assay: Analgesic activity in mouse assessed as inhibition of acetic acid-induced writhing at 10 mg/kg, po administered 30 mins prior to acetic acid challenge measured after 5 mins for 20 mins; type: functional
Mus musculus [7] = assay: Antianxiety activity in albino BALB/cJ mouse assessed as reduction in footshock-induced fighting behavior at 10 mg/kg, po after 30 to 90 mins; type: functional; parameters: scale not given: the % may be the effect or the level left
Rattus norvegicus [8] = assay: Antianxiety activity in Long-Evans rat assessed as reduction in motor activity at 20 mg/kg, po after 2 hrs relative to vehicle-treated control; type: functional; parameters: scale not given: the % may be the effect or the level left
Rattus norvegicus [9] = assay: Increase in methamphetamine-induced hyperactivity in rat at 5 mg/kg, po administered prior to methamphetamine challenge relative to vehicle-treated control; type: functional
[10] = Acute toxicity in po dosed mouse; type: organism-based; conditions: in vivo
Canis familiaris = assay: Antianxiety activity in po dosed dog assessed as ataxia administered as single dose measured up to 24 hrs; type: functional; conditions: Canis lupus familiaris, read-out: MED
Rattus norvegicus [11] = assay: Antianxiety activity in Long-Evans rat assessed as reduction in motor activity at 5 mg/kg, po after 2 hrs relative to vehicle-treated control; type: functional; parameters: scale not given: the % may be the effect or the level left
Rattus norvegicus [12] = assay: Antihypertensive activity in spontaneously hypertensive rat model assessed as reduction in blood pressure at 30 mg/kg, po after 24 hrs; type: functional; parameters: scale not given: the % may be the effect or the level left
Rattus norvegicus [13] = assay: Antihypertensive activity in spontaneously hypertensive rat model assessed as reduction in blood pressure at 10 mg/kg, po after 3 hrs; type: functional; parameters: scale not given: the % may be the effect or the level left
Mus musculus [14] = assay: Analgesic activity in mouse assessed as inhibition of acetic acid-induced writhing at 40 mg/kg, po administered 30 mins prior to acetic acid challenge measured after 5 mins for 20 mins; type: functional
Rattus norvegicus [15] = assay: Antihypertensive activity in spontaneously hypertensive rat model assessed as reduction in blood pressure at 10 mg/kg, po after 24 hrs; type: functional; parameters: scale not given: the % may be the effect or the level left
Rattus norvegicus [16] = assay: Antihypertensive activity in spontaneously hypertensive rat model assessed as reduction in blood pressure at 30 mg/kg, po after 3 hrs; type: functional; parameters: scale not given: the % may be the effect or the level left
Rattus norvegicus [17] = assay: Antipsychotic activity in rat assessed as reduction of methamphetamine-induced hyperactivity at 5 mg/kg, po administered prior to methamphetamine challenge relative to vehicle-treated control; type: functional; parameters: scale not given: the % may be the effect or the level left
Rhesus monkey [18] = assay: Antianxiety activity in rhesus monkey assessed as antiagressive behavior at 10 mg/kg, po measured every hour post dosing; type: functional, organism-based; parameters: dose 10 mg/kg; conditions: Macaca mulatta
Felis catus [19] = assay: Hypnotic activity in cat assessed as increase in total sleep time at 0.5 mg/kg administered orally through diet measured for 12 hrs by EEG analysis; type: functional; conditions: route oral
Felis catus [20] = assay: Hypnotic activity in cat assessed as increase in non-REM sleep time at 0.5 mg/kg administered orally through diet measured for 12 hrs by EEG analysis; type: functional; conditions: route oral
Rattus norvegicus [21] = assay: Antipsychotic activity in rat assessed as reduction of methamphetamine-induced hyperactivity at 10 mg/kg, po administered prior to methamphetamine challenge relative to vehicle-treated control; type: functional; parameters: scale not given: the % may be the effect or the level left
Mus musculus [22] = assay: Analgesic activity in po dosed mouse assessed as inhibition of acetic acid-induced writhing administered 30 mins prior to acetic acid challenge measured after 5 mins for 20 mins; type: functional
Rattus norvegicus [23] = assay: Antipsychotic activity in rat assessed as reduction of methamphetamine-induced hyperactivity at 20 mg/kg, po administered prior to methamphetamine challenge relative to vehicle-treated control; type: functional; parameters: scale not given: the % may be the effect or the level left
Mus musculus [24] = assay: Antianxiety activity in albino BALB/cJ mouse assessed as reduction in footshock-induced fighting behavior at 5 mg/kg, po after 30 to 90 mins; type: functional; parameters: scale not given: the % may be the effect or the level left
Rattus norvegicus [25] = organism: Rattus norvegicus; assay: animal or person; type: functional; conditions: Charles River, route oral
Description: Antidiarrheal activity in Charles River rat assessed as inhibition of castor oil-induced diarrhea by measuring protected animals at 0.5 mg/kg, po administered 1 hr prior to castor oil challenge measured after 1 hr relative to vehicle-treated control

Rattus norvegicus [26] = assay: Analgesic activity in po dosed Sprague-Dawley rat after 15 to 90 mins by tail flick test; type: functional
Rhesus monkey [27] = assay: Antianxiety activity in po dosed rhesus monkey assessed as antiagressive behavior measured every hour post dosing; type: functional; conditions: Macaca mulatta, read-out: MED
Rattus norvegicus [28] = assay: Antipsychotic activity in rat assessed as reduction of methamphetamine-induced hyperactivity at 2.5 mg/kg, po administered prior to methamphetamine challenge relative to vehicle-treated control; type: functional; parameters: scale not given: the % may be the effect or the level left
Rattus norvegicus [29] = assay: Antianxiety activity in Long-Evans rat assessed as reduction in motor activity at 4 mg/kg, po after 2 hrs relative to vehicle-treated control; type: functional; parameters: scale not given: the % may be the effect or the level left
Rattus norvegicus [30] = assay: Antianxiety activity in Long-Evans rat assessed as reduction in motor activity at 1 mg/kg, po after 2 hrs relative to vehicle-treated control; type: functional; parameters: scale not given: the % may be the effect or the level left
Rattus norvegicus [31] = assay: Antiulcer activity in albino Sprague-Dawley rat reserpine ulcer model assessed as prevention of reserpine-induced gastric lesions by measuring ulcer index scores at 50 mg/kg, po administered 30 mins prior to reserpine challenge measured after 6 hrs; type: functional, Stomach
Rattus norvegicus [32] = assay: Antiulcer activity in albino Sprague-Dawley rat stress ulcer model assessed as prevention of stress-induced gastric lesions by measuring ulcer index score at 40 mg/kg, po administered 30 mins prior to stress measured after 4 hrs; type: functional, Stomach
Felis catus [33] = assay: Hypnotic activity in cat assessed as increase in non-REM sleep time at 0.25 mg/kg administered orally through diet measured for 12 hrs by EEG analysis; type: functional; conditions: route oral
Rattus norvegicus [34] = assay: Antiulcer activity in albino Sprague-Dawley rat reserpine ulcer model assessed as prevention of reserpine-induced gastric lesions by measuring ulcer index scores at 10 mg/kg, po administered 30 mins prior to reserpine challenge measured after 6 hrs; type: functional; conditions: Stomach
Rattus norvegicus [35] = assay: Antisecretory activity in Sprague-Dawley rat assessed as decrease in pepsin output at 50 mg/kg, po administered 30 mins prior to pylorus ligation measured after 4 hrs relative to control; type: functional; parameters: scale not given: the % may be the effect or the level left
Rattus norvegicus [36] = assay: Antiulcer activity in albino Sprague-Dawley rat shay ulcer model assessed as ulcer index scores at 50 mg/kg administered intraduodenally post pyloric ligation measured after 18.5 hrs relative to vehicle-treated control; type: functional; conditions: route intraduodenal
Rattus norvegicus [37] = assay: Antisecretory activity in Sprague-Dawley rat assessed as decrease in acidity at 50 mg/kg, po administered 30 mins prior to pylorus ligation measured after 4 hrs relative to control; type: functional; parameters: scale not given: the % may be the effect or the level left
Rattus norvegicus [38] = assay: Antisecretory activity in Sprague-Dawley rat assessed as decrease in volume at 50 mg/kg, po administered 30 mins prior to pylorus ligation measured after 4 hrs relative to control; type: functional; parameters: scale not given: the % may be the effect or the level left
Rattus norvegicus [39] = assay: Antisecretory activity in Sprague-Dawley rat assessed as decrease in acid output at 50 mg/kg, po administered 30 mins prior to pylorus ligation measured after 4 hrs relative to control; type: functional; parameters: scale not given: the % may be the effect or the level left
Rattus norvegicus [40] = assay: Antihypertensive activity in spontaneously hypertensive rat model assessed as reduction in blood pressure at 0.3 mg/kg, po after 3 hrs; type: functional; parameters: scale not given: the % may be the effect or the level left
Rattus norvegicus [41] = assay: Antiulcer activity in albino Sprague-Dawley rat shay ulcer model assessed as ulcer index scores at 20 mg/kg administered intraduodenally post pyloric ligation measured after 18.5 hrs relative to vehicle-treated control; type: functional
Felis catus [42] = assay: Hypnotic activity in cat assessed as decrease in non-REM sleep time at 0.5 mg/kg administered orally through diet measured for 12 hrs by EEG analysis; type: functional; conditions: route oral
Rattus norvegicus [43] = assay: Antihypertensive activity in spontaneously hypertensive rat model assessed as reduction in blood pressure at 0.3 mg/kg, po after 24 hrs; type: functional; parameters: scale not given: the % may be the effect or the level left
Rattus norvegicus [44] = assay: Antiulcer activity in albino Sprague-Dawley rat stress ulcer model assessed as prevention of stress-induced gastric lesions by measuring ulcer index score at 10 mg/kg, po administered 30 mins prior to stress measured after 4 hrs; type: functional, Stomach
Felis catus [45] = assay: Hypnotic activity in cat assessed as increase in total sleep time at 0.25 mg/kg administered orally through diet measured for 12 hrs by EEG analysis; type: functional; conditions: route oral

| Structure (SMILES) | Activity (Mus musculus [7]) [%] | LD50 [10] [mg/kg] | minimal effective dose (Canis familiaris) [mg/kg] | Activity (Rattus norvegicus [11]) [%] | Activity (Rattus norvegicus [12]) [%] | Activity (Rattus norvegicus [13]) [%] | Activity (Rattus norvegicus [15]) [%] | Activity (Rattus norvegicus [16]) [%] | Time (Felis catus [19]) [min] | Time (Felis catus [20]) [min] | Activity (Rattus norvegicus [21]) [%] | ED50 (Mus musculus [22]) [mg/kg] | Activity (Rattus norvegicus [23]) [%] | Activity (Mus musculus [24]) [%] | inhibition in vivo at 0.5 mg/kg (Rattus norvegicus [25]) [%] | ED50 (Rattus norvegicus [26]) [mg/kg] | Activity (Rattus norvegicus [29]) [%] | Activity (Rattus norvegicus [30]) [%] | further results |
| --- | --- | --- | --- | --- | --- | --- | --- | --- | --- | --- | --- | --- | --- | --- | --- | --- | --- | --- | --- |
| CC1CCC2=C(C1)c1c(O)cc(C(C)C(C)CCCc3ccc(F)cc3)cc1OC2(C)C (configuration not stated) | 16 | 500 | 10 | – | – | – | – | – | – | – | – | – | – | – | – | – | – | – | Activity (Rattus norvegicus [1]): 9%; Activity (Rattus norvegicus [2]): 5%; Activity (Rattus norvegicus [3]): 0%; Activity (Rattus norvegicus [4]): 33%; Activity (Rattus norvegicus [5]): 36%; inhibition in vivo at 10 mg/kg (Mus musculus [6]): 32%; Activity (Rattus norvegicus [8]): 62%; Activity (Rattus norvegicus [9]): 23% |
| CC1CCC2=C(C1)c1c(O)cc(C(C)CCCN(C)C)cc1OC2(C)C (configuration not stated) | 38 | ≥ 1000 | – | 12 | 6 | 9 | 13 | 10 | – | – | – | – | – | – | – | – | – | – | inhibition in vivo at 40 mg/kg (Mus musculus [14]): 18%; Activity (Rattus norvegicus [17]): 20%; Activity (Rhesus monkey [18]): inactive |
| C#CCN1CCC2=C(C1)c1c(O)cc(C(C)CCCCc3ccc(F)cc3)cc1OC2(C)C (configuration not stated) | – | ≥ 1000 | – | 33 | 0 | – | – | 0 | 61 | 7 | 50 | 48 | 70 | 0 | 30 | – | – | – | – |
| CC1CCC2=C(C1)c1c(OC(=O)CCCN3CCOCC3)cc(C(C)CCCc3ccc(F)cc3)cc1OC2(C)C.Cl (configuration not stated) | – | ≥ 1000 | 10 | – | – | – | – | – | 16 | 39 | 95 | 6 | – | 8 | – | 1.7 | 93 | 68 | minimal effective dose (Rhesus monkey [27]): 10 mg/kg; Activity (Rattus norvegicus [28]): 86% |
| C#CCN1CCC2=C(C1)c1c(O)cc(C(C)CCCc3ccc(F)cc3)cc1OC2(C)C (configuration not stated) | 47 | ≥ 1000 | 1 | – | – | 30 | 15 | – | 99 | – | 8 | 5.3 | 34 | – | 53 | 3.7 | 77 | 60 | UI (Rattus norvegicus [31]): 1.5; UI (Rattus norvegicus [32]): 1.4; Time (Felis catus [33]): 45 min; Activity (Rattus norvegicus [34]): inactive; Activity (Rattus norvegicus [35]): 22.2%; UI (Rattus norvegicus [36]): 1.3; Activity (Rattus norvegicus [37]): 12.8%; Activity (Rattus norvegicus [38]): 33.3%; Activity (Rattus norvegicus [39]): 42.9%; Activity (Rattus norvegicus [40]): 22%; Activity (Rattus norvegicus [41]): Active; Time (Felis catus [42]): -20 min; Activity (Rattus norvegicus [43]): 15%; UI (Rattus norvegicus [44]): 1.7; Time (Felis catus [45]): 45 min |

Source: ChEMBL document CHEMBL3272295, “Drugs derived from cannabinoids. 5. delta6a,10a-Tetrahydrocannabinol and heterocyclic analogs containing aromatic side chains” (J Med Chem, 1976)
